Read-outs that look alike come from different tables or passages of the source.
What was measured:
liver = assay: in vivo DNP-MRI of the liver after intravenous CmP: redox metabolic rate (free radical consumption speed); parameters: species or system mouse
Description: C57BL6 mice (female, 5 weeks old) were purchased from Charles River Laboratories Japan, Inc. (Yokohama, Japan), and were acclimated for 1 week before starting the experiment. Five mice were housed per cage and were fed with a methionine-choline deficient diet or a normal diet in a room where the temperature and the circadian rhythm were controlled. Each of a methionine-choline deficient diet group (NASH model mouse group) and a normal diet group (normal mouse group) was divided into 5 groups to be subjected to DNP-MRI measurement at 1, 2, 4, 6 and 8 weeks, and blood collection, autopsy and liver tissue collection were performed to evaluate the pathological conditions.
A mouse (NASH model mouse) was anesthetized with isoflurane (4% for introduction, 2% for maintenance) and was fixed, with a pressure-sensitive tape for skin, on a local detector for liver measurement (a surface coil) and a holder with the stomach side faced downward. The body temperature of the mouse was 37±1° C. during the experiment. The mouse was transferred to a DNP-MRI resonance apparatus and the apparatus was set such that the whole liver was a measurement target, and then, CmP (Carbamoyl-PROXYL, redox contrast agent) was intravenously injected into the NASH mode mouse, and the DRI-MRI measurement was started.
TR: 1200 ms; TE: 25 ms; TEPR: 600 ms; number of phase-encoding gradient steps: 64; […]; FOV: 48 mm×48 mm; matrix size: 64×64 (in-plane resolution: 0.75 mm); slice thickness: 30 mm; number of average: 1; and scanning time: 79 s. OMRI data was analyzed by using Image J Software Package (http://rsb.info.nih.gov/ij/).
Besides, the mouse group fed with the normal diet (the normal mouse group) was similarly subjected as a control to the DRI-MRI evaluation.
With respect to the NASH model mouse group, the DNP-MRI measurement was performed 1 week (MCD1), 2 weeks (MCD2), 4 weeks (MCD4), 6 weeks (MCD6) and 8 weeks (MCD8) after feeding the methionine-choline deficient diet (MCD) was started, and the redox metabolic rate of the CmP radical in the liver was calculated.
Also with respect to the normal mouse group, the DNP-MRI measurement was similarly performed 1 week (ND1), 2 weeks (ND2), 4 weeks (ND4), 6 weeks (ND6) and 8 weeks (ND8) after feeding the normal diet was started, and the redox metabolic rate of the CmP radical in the liver was calculated.

[1] = tested on: homogenate solution of the liver
[2] = tested on: homogenate solution of the liver; assay: redox metabolism of CmP by liver homogenate solution, cytoplasmic and blood components (FIG. 7); settings: KCN (mitochondrial electron transport chain inhibitor) added

## CC1(C)CC(C(N)=O)C(C)(C)N1[O] (stereo not shown) [CmP, Carbamoyl-PROXYL]
liver; NASH model mouse compared with normal mouse
  disappearance of the CmP (image intensity in region of interest): significantly slower
liver; NASH model mouse group (methionine-choline deficient diet), from 1 week (MCD1), versus normal mouse
  redox metabolic rate (disappearing rate) in the liver: significant decrease
liver; NASH model mouse, epigastrium DNP-MRI images, FIG. 3
  time after administration at which the CmP radical still remained: 13 min
liver; normal mice (control), epigastrium DNP-MRI images, FIG. 3
  time after administration at which the CmP radical had mostly disappeared: 5.5 min
[1]
  reaction with a cytoplasmic component or a blood component: minimally reacts
  redox metabolism by a homogenate solution of the liver: redox metabolized
[2]
  redox metabolism by a homogenate solution of the liver: metabolism is stopped
